Laboratory results published in patent US20100298434A1, “NEUROPROTECTION AND PREVENTION OF DOPAMINERGIC CELL DEATH BY TARGETING NUR77 TRANSLOCATION” (priority 2009, published 2010).

Legend:
[1] = tested on: PC12 cells; test: TUNEL/DAPI apoptosis in PC12 cells; format: cell-based, rat; settings: 6-OHDA, at 12 and 24 h
Description: (§1) PC12 cells were obtained from ATCC CRL 1721 (VA, USA) and were grown in phenol red-free RPMI 1640 medium supplemented with 5% fetal calf serum (FCS), 10% horse serum and gentamicin (50 μg/ml). They were cultured on Primaria 6-well plates (BD Falcon, Ontario, Canada) for RT-PCR experiments and immunoblotting; on Primaria 96-wells plates for LDH cytoxicity experiments and finally on poly-L-lysine-coated circular glass coverslips for immunocytofluorescence assays. Cells were fed fresh medium every 3 days and maintained at 37° C. in a humidified 5% CO2 atmosphere. […] Control conditions were without toxin. […] For the present study, kinetic time periods were: 0 h, 3 h, 6 h, 9 h, 12 h and 24 h. After each experiment, culture medium was harvested for cytotoxicity detection and cells were collected for RT-PCR and ICF/Fractioning (Gelinas & Martinoli 2002; Gagne et al. 2003; Gelinas et al. 2004; Chiasson et al. 2006).
PC12 cells were grown and treated on circular glass coverslips, then fixed in 4% paraformaldehyde for 1 hour at 4° C. […] Images were acquired with an Olympus IX-70 inverted microscope with a high-pressure mercury burner and necessary filter cubes (Olympus U-MNUV, U-MNIBA and U-MWIG), and were analyzed with Bio-Rad's QuantityOne software. […]

[2] = tested on: Nur77; test: Nur77 subcellular distribution (nuclei-cytoplasmic fractioning, Western blot) in PC12 cells; format: cell-based, rat
Description: as §1
PC12 cells were grown and treated in 6-wells plates. We used a nuclear extraction kit (Active Motif, Carlsbad, Calif.) to separate cytoplasmic protein content from nuclear protein content. Briefly, cells were washed in wells with a mixture of PBS and phosphatase inhibitors, and then harvested in centrifuge tubes. Hypotonic buffer swelled cytoplasmic membrane, which an afterward mild detergent ruptured.
Centrifugation at 14,000×g pelleted the intact nuclei, and soluble material was preserved as the cytoplasmic fraction. Nuclei were the lysed with the provided lysis buffer. Protein dosage was performed with a bicinchoninic acid (BCA)-based SDS-compatible Protein Assay Kit (Pierce, Rockfort, Ill.) on each fraction of each sample.
Equal amounts of nuclei or cytoplasmic protein fractions were loaded onto a 10% polyacrylamide-SDS gel. After electrophoretic separation (180 volts, 45 min.) the polyacrylamide gels were transferred onto […] (PVDF) membranes (0.22 μm pore size, Bio-Rad) at 50 V for 2 h. The membranes were blocked with 5% non-fat powder milk for 1 h. […] Quantitative analysis was performed with the Fluor Chem SP software.

[3] = tested on: substantia nigra neurons; test: 6-hydroxydopamine lesions in rats, Fluoro-Jade B staining of degenerating neurons; format: in vivo; settings: intracerebral 6-OHDA
Description: (§2) Fifteen male Sprague—Dawley albino rats (Charles River, Montreal, Canada) weighing 250-275 g at the beginning of the experiment were used in this study. They were housed two per cage in a temperature-controlled environment maintained under a 12-h light/dark cycle with ad libitum access to food and water. Handling of the rats was performed in accordance with the Canadian Guide for the Care and Use of Laboratory animals and all procedures were approved by the Institutional Animal Care Committee of Laval University. All efforts were made to minimize the number of animals used and their suffering. Rats were anaesthetized in an induction chamber with 4% isoflurane in 95% O2/5% CO2 before being transferred to a stereotaxic frame and maintained at 1.5-3% isoflurane. A sagittal cut exposed bregma and a hole was drilled.
The brain sections were mounted on gelatin-coated slides (Brain Research Laboratories, Newton, Mass.) and air-dried overnight. They were dehydrated in ascending grades of ethanol, hydrated in descending grades of ethanol and finally rinsed in milliQ water. Afterwards, the sections were dipped in a 0.06% potassium permanganate solution bath for 10 min and washed in milliQ water. […] Degenerating neurons and fibers appeared green and nuclei emerged blue in fluorescence.

[4] = tested on: Nur77 mRNA; test: 6-hydroxydopamine lesions in rats, Nur77 mRNA in situ hybridization in substantia nigra; format: in vivo; settings: intracerebral 6-OHDA 12 μg/3 μl
Description: as §2
Cryostat-cut brain sections (12 μm) were mounted on Superfrost slides (Fisher Scientific, Toronto, ON, Canada) and stored at −80° C. Specific [^35S]UTP-labeled complementary.
RNA (cRNA) probes were used and preparation of the Nur77 probe was performed as described previously (Beaudry et al., 2000). The antisense cRNA probe for Nur77 stems from a 2.4-kb EcoRI fragment of a full-length rat Nur77 cDNA subcloned into pBluescript SK-1 and linearized with BamHI. […]

[5] = tested on: PC12 cells; test: LDH cytotoxicity in PC12 cells; format: cell-based
Description: They were cultured on Primaria 6-well plates (BD Falcon, Ontario, Canada) for RT-PCR experiments and immunoblotting; on Primaria 96-wells plates for LDH cytoxicity experiments and finally on poly-L-lysine-coated circular glass coverslips for immunocytofluorescence assays. Cells were fed fresh medium every 3 days and maintained at 37° C. in a humidified 5% CO2 atmosphere. […] Control conditions were without toxin.
Briefly, media were collected and centrifuged at 800×g at 4° C. for 2 min. The cell-free supernatant (100 μl) was then used to determine LDH activity by measuring the absorbance at a wavelength of 490 nm (A490) on a microplate reader (Multiscan Ascent Microplate reader, Thermolab System, Franklin Mass.) according to the working procedures of Roche's protocol. Total cellular LDH was determined by lysing cells with 1% Triton X-100.

[6] = tested on: nigral TH neurons; test: MPTP lesions in mice, stereological counts of TH-immunoreactive neurons; format: in vivo; settings: Nur77 (+/+) mice, 7 i.p. injections MPTP-HCl 20 mg/kg, 14 days after last injection
Excerpt: Wild-type (Nur77(+/+)) male (C57BL/6, weighing 20-25 g) mice were purchased from Charles River, Canada. Nur77 knockout (Nur77(−/−)) mice were developed and graciously provided by Dr Jeff Milbrandt at the Washington University, St. Louis, Mo., USA (Lee et al., 1995). These mice are healthy and reproduce normally (Crawford et al., 1995; Lee et al., 1995). They were produced in a mixed background and have been backcrossed into the C57BL/6 strain for at least ten generations to reduce genetic background heterogeneity (Jeff Milbrandt, personal communication). We maintain a Nur77(−/−) mouse colony at the animal care facility of our research center. Young adult Nur77(−/−) male mice weighing 20-25 g were used for present experiments. All mice were housed three or four per cage in a temperature-controlled environment and maintained under a 12-h light-dark cycle with ad libitum access to food and water.
In total, 17 mice (8 Nur77 (+/+) and 9 Nur77 (−/−)) received seven intraperitoneal (i.p.) injections of MPTP-HCl (20 mg/kg free base; Sigma, St. Louis, Mo.) dissolved in NaCl 0.9%. MPTP was administered twice on the first 2 days of the experimental protocol at an interval of 12 h and once a day on 3 subsequent days (Tremblay et al. 2006; Gibrat et al., 2010). […]
The loss of DA neurons was determined by counting TH-immunoreactive cells under bright-field illumination. […]

Structure (SMILES): NCCc1cc(O)c(O)cc1O [6-OHDA, 6-hydroxydopamine]
- cells showing signs of apoptosis (co-localization of DAPI and TUNEL) [1]: more than 90%
- start of Nur77 upregulation and translocation from the nucleus to the cytosol ([2]; 6-OHDA 30 μM): 9 h
- time at which Fluoro-Jade staining is also observed [3]: 3 h
- time of maximal Fluoro-Jade staining [3]: 48 h
- earliest time of Nur77 mRNA induction in midbrain dopaminergic neurons [4]: 3 h
- start of significant rise of cellular death (LDH activity) ([5]; PC12 cells, 10 μM 6-OHDA): 12 h
- cell death ([5]; PC12 cells, 6-OHDA 30 μM, after 24 h): ≤ 70%

Structure (SMILES): CC/C=C\C/C=C\C/C=C\C/C=C\C/C=C\C/C=C\CCC(=O)O [DHA, docosahexaenoic acid]
- cytotoxicity induced by 6-OHDA ([5]; PC12 cells, 6-OHDA 30 μM, co-incubation with DHA 10^−6 M): significantly reduced
- cytotoxicity induced by MPP+ ([5]; PC12 cells, MPP+ 5 mM, co-incubation with DHA 10^−6 M): significantly reduced

Structure (SMILES): CCC(=C/[C@H](C)C/C=C/C(C)=C/[C@@H](C)C(=O)[C@@H](C)[C@H](O)[C@@H](C)C/C(C)=C/C(=O)O)/C=C/[C@@H]1OC(=O)C=C[C@@H]1C [LMB, leptomycin B]
- 6-OHDA-induced translocation of Nur77 from the nucleus to the cytosol ([2]; 6-OHDA 30 μM, co-incubation with LMB 1 nM): blocked
- PC12 cell survival ([5]; LMB alone): no effect
- 6-OHDA induced cell death ([5]; PC12 cells, co-incubation of LMB with 6-OHDA, 24 h): significant reduction

Structure (SMILES): C[n+]1ccc(-c2ccccc2)cc1 [MPP+, 1-methyl-4-phenylpyridinium ion]
- beginning of Nur77 protein translocation from the nucleus to the cytosol ([2]; MPP+ 5 mM): 6 h

Structure (SMILES): CN1CC=C(c2ccccc2)CC1 [MPTP, 1-methyl-4-phenyl-1,2,3,6-tetrahydropyridine]
- number of nigral TH neurons [6]: significantly reduced
